# Experimental data from US12692287B2, “Polymorphic form of reduced B-nicotinamide mononucleotide calcium salt, and preparation method and use therefor” (EffePharm (Shanghai) Co., Ltd., priority 2023, dated 2026).
# Like-named read-outs stand apart in the source and are kept apart here.
# Experiments:
# [1] = Stability: solids placed openly in a stability test chamber at 25° C. and 65% RH, purity by HPLC; assay type: physicochemical; conditions: calcium salt
# Description: NMNH is the reduced form of NMN, sensitive to air, easily oxidized, and unstable, making it unsuitable for long-term storage and market promotion. WO2023160405 (A1) reported the NMNH disodium salt compound and its crystalline and amorphous forms. […] Such stability fails to meet the shelf-life requirements for commercial products, hindering market promotion. The solid forms of NMNH calcium salt crystalline form A, crystalline form B, crystalline form C, crystalline form D, and crystalline form E were placed openly in a stability test chamber at 25° C. and 65% RH to evaluate their stability and hygroscopicity.
# [2] = Hygroscopicity: solids placed openly at 25° C. and 65% RH, water content by KF; assay type: physicochemical
# Experimental: The solid forms of NMNH calcium salt crystalline form A, crystalline form B, crystalline form C, crystalline form D, and crystalline form E were placed openly in a stability test chamber at 25° C. and 65% RH to evaluate their stability and hygroscopicity.
# [3] = WO2023160405 (A1); cited from earlier work
# [4] = cited from earlier work; for Purity (HPLC, area %) / Appearance of the solid: 25° C., 65% RH, data of WO2023160405 (A1); for Purity: 25° C. and 65% RH / air, WO2023160405 (A1)
"Purity (HPLC, area %) ([1]; 0 day) [area %]","Purity (HPLC, area %) ([1]; 5 days) [area %]","Purity (HPLC, area %) ([1]; 60 days) [area %]",Water content of NMNH calcium salt crystalline form (KF) ([2]; 0 day) [%],Water content of NMNH calcium salt crystalline form (KF) ([2]; 5 days) [%],Water content of NMNH calcium salt crystalline form (KF) ([2]; 60 days) [%],Structure (SMILES),other results
99.60,99.60,99.59,20.3,20.3,20.0,"NC(=O)C1=CN([C@@H]2O[C@H](COP(=O)(O)O)[C@@H](O)[C@H]2O)C=CC1.[Ca+2] [NMNH calcium salt Crystalline Form E, reduced β-nicotinamide mononucleotide calcium salt]",
99.83,99.82,99.82,9.2,9.2,9.0,"NC(=O)C1=CN([C@@H]2O[C@H](COP(=O)(O)O)[C@@H](O)[C@H]2O)C=CC1.[Ca+2] [NMNH calcium salt Crystalline Form A, reduced β-nicotinamide mononucleotide calcium salt]",
99.64,99.64,99.64,18.4,18.4,18.3,"NC(=O)C1=CN([C@@H]2O[C@H](COP(=O)(O)O)[C@@H](O)[C@H]2O)C=CC1.[Ca+2] [NMNH calcium salt Crystalline Form D, reduced β-nicotinamide mononucleotide calcium salt]",
,,,,,,"NC(=O)C1=CN([C@@H]2O[C@H](COP(=O)([O-])[O-])[C@@H](O)[C@H]2O)C=CC1.[Na+].[Na+] [NMNH disodium salt crystalline form B, NMNH disodium salt]",Behaviour of the crystalline form when stored in the air [3]: absorb water and transform into crystalline form A
99.78,99.78,99.79,9.5,9.5,9.3,"NC(=O)C1=CN([C@@H]2O[C@H](COP(=O)(O)O)[C@@H](O)[C@H]2O)C=CC1.[Ca+2] [NMNH calcium salt Crystalline Form C, reduced β-nicotinamide mononucleotide calcium salt]",
,,,,,,"NC(=O)C1=CN([C@@H]2O[C@H](COP(=O)([O-])[O-])[C@@H](O)[C@H]2O)C=CC1.[Na+].[Na+] [NMNH disodium salt Crystalline Form A, NMNH disodium salt]","Purity (HPLC, area %) ([4]; 0 day, disodium salt): 99.33 area %; Purity (HPLC, area %) ([4]; 1 day, disodium salt): 99.27 area %; Purity (HPLC, area %) ([4]; 5 days): 99.01 area %; Purity ([4]; after 5 days): 99.01%; Purity ([4]; text, initial value before exposure, listed as NMNH disodium salt crystalline Form A, disodium salt): 99.33%; Purity ([4]; text, initial value before exposure, listed as NMNH disodium salt crystalline form A, disodium salt): 99.33%"
99.75,99.75,99.75,13.3,13.2,12.9,"NC(=O)C1=CN([C@@H]2O[C@H](COP(=O)(O)O)[C@@H](O)[C@H]2O)C=CC1.[Ca+2] [NMNH calcium salt Crystalline Form B, reduced β-nicotinamide mononucleotide calcium salt]",
,,,,,,"NC(=O)C1=CN([C@@H]2O[C@H](COP(=O)([O-])[O-])[C@@H](O)[C@H]2O)C=CC1.[Na+].[Na+] [NMNH disodium salt Amorphous Form, NMNH disodium salt]","Appearance of the solid ([4]; 0 day, disodium salt): (powder); Purity (HPLC, area %) ([4]; 0 day, disodium salt): 99.30 area %; Appearance of the solid ([4]; 0 day, listed as amorphous solid of NMNH disodium salt, disodium salt): powder; Purity (HPLC, area %) ([4]; 1 day, disodium salt): 99.02 area %; Appearance of the solid ([4]; after 1 day, disodium salt): (oil); Appearance of the solid ([4]; after 1 day, listed as NMNH disodium salt amorphous powder, disodium salt): oil; Appearance of the solid ([4]; after 1 day, listed as amorphous solid of NMNH disodium salt, disodium salt): oil; Purity ([4]; after 1 day): 99.02%; Purity ([4]; initial value before exposure, listed as NMNH disodium salt amorphous powder, disodium salt): 99.30%; Purity ([4]; initial value before exposure, listed as amorphous solid of NMNH disodium salt, disodium salt): 99.30%"
